Our source for the Ki values is publication PMC7782162, “Inhibition of the β-carbonic anhydrase from the protozoan pathogen Trichomonas vaginalis with sulphonamides” (Journal of Enzyme Inhibition and Medicinal Chemistry, 2020).

The first test deals with T1, TvaCA1 (Trichomonas vaginalis, UniProt A2ENQ8).
T1 construct: gene TVAG_005270; recombinant from E. coli BL21 Star (DE3), Ni2+-NTA purified; beta-CA homodimer with two active sites
T1 sequence (A2ENQ8 1-182): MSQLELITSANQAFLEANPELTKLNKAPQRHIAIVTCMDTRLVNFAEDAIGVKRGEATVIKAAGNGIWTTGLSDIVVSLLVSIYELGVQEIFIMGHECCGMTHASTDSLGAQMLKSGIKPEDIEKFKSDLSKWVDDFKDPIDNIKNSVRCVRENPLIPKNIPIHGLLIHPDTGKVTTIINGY
Nature of the test: stopped-flow CO2 hydrase assay. The class given is biochemical. The settings on record: read-out: KI^a (nM) / TvaCA1^c.
Consider `CCN[C@H]1CN(CCCOC)S(=O)(=O)c2sc(S(N)(=O)=O)cc21` [BRZ, brinzolamide], for which the Ki is greater than 50000 nM.

As to `NS(=O)(=O)c1nnc(NS(=O)(=O)c2ccccc2)s1` [BZA, benzolamide], the Ki is greater than 50000 nM.

As for `NS(=O)(=O)c1cc(Cl)c(Cl)c(S(N)(=O)=O)c1` [DCP, dichlorophenamide], the Ki was greater than 50000 nM.

For `CC(=O)N=c1sc(S(N)(=O)=O)nn1C` [MZA, methazolamide], the Ki amounted to 3830 nM.

In the case of `CC1(C)O[C@@H]2[C@@H](CO[C@@]3(COS(N)(=O)=O)OC(C)(C)O[C@@H]23)O1` [TPM, topiramate], the Ki is greater than 50000 nM.

For the molecule `NS(=O)(=O)Cc1noc2ccccc12` [ZNS, zonisamide], the Ki was greater than 50000 nM.

Regarding `Nc1cccc(S(N)(=O)=O)c1` [compound 1, 1], the Ki was 3250 nM.

Consider `Nc1ccc(S(N)(=O)=O)cc1` [compound 2, 2], for which the Ki was found to be 4740 nM.

Turning to `NS(=O)(=O)c1cccc(S(N)(=O)=O)c1` [compound 3, 3], the Ki was found to be 3560 nM.

Take `Cc1ccc(S(N)(=O)=O)cc1` [compound 4, 4]: the Ki came to 3600 nM.

For `Nc1ccc(S(N)(=O)=O)cc1F` [compound 7, 7], the Ki worked out at 4280 nM.

For the molecule `NS(=O)(=O)c1cc(Cl)cc(Cl)c1O` [compound 10, 10], the Ki was determined as 4540 nM.

Take `Nc1nnc(S(N)(=O)=O)s1` [compound 13, 13]: the Ki was 1890 nM.

`Cn1nc(S(N)(=O)=O)sc1=N` [compound 14, 14]: the Ki was determined as 3990 nM.

As for `NS(=O)(=O)c1ccc(O)cc1` [compound 15, 15], the Ki was determined as 2030 nM.

Take `Nc1nccc(Nc2ccc(S(N)(=O)=O)cc2)n1` [compound 19, 19]: the Ki is 4530 nM.

For `NS(=O)(=O)c1ccc(CCNS(=O)(=O)c2ccc([N+](=O)[O-])cc2CO)cc1` [compound 21, 21], the Ki is 3450 nM.

A further test deals with T1, TvaCA1. As to the kind of experiment: biochemical. The arrangement: stopped-flow CO2 hydration assay, phenol red at 557 nm, TRIS pH 8.3, 15 min preincubation, KI. The note with it: inhibitor; read-out: KI^a (nM) / TvaCA1^c / β. The protocol: An Applied Photophysics stopped-flow instrument was used for assaying the CA catalysed CO2 hydration activity. Phenol red (at a concentration of 0.2 mM) was used as an indicator, working at the absorbance maximum of 557 nm, with 10 − 20 mM HEPES (pH 7.5, for α-CAs) or TRIS (pH 8.3 for β-CAs) as buffers, and 20 mM NaClO4 (for maintaining constant the ionic strength), following the initial rates of the CA-catalysed CO2 hydration reaction for a period of 10–100 s. The CO2 concentrations ranged from 1.7 to 17 mM for the determination of the kinetic parameters and inhibition constants. For each inhibitor, at least six traces of the initial 5–10% of the reaction were used for determining the initial velocity. The uncatalyzed rates were determined in the same manner and subtracted from the total observed rates. Stock solutions of inhibitors (10 mM) and dilutions up to 0.01 nM were prepared in distilled-deionised water. Inhibitor and enzyme solutions of concentrations ranging between 5 and 12 nM were preincubated together for 15 min at room temperature prior to assay, in order to allow for the formation of the enzyme–inhibitor complex. The inhibition constants were obtained by non-linear least-squares methods using PRISM 3 as reported earlier, and represent the mean from at least three different determinations. TvaCA1 was a recombinant enzyme obtained in-house as described earlier. The enzyme was recombinantly produced in E. coli (OneShot® BL21 Star™ (DE3) Chemically Competent Cells, #C601003, Thermo Fisher Scientific, Finland). The enzyme was purified using Ni^2+-NTA agarose affinity chromatography resin (Macherey-Nagel GmbH Co., Germany). More detailed information concerning the recombinant protein production and its kinetic and structural characterisation can be found in our previous article. The presence of the correct protein in the isolated protein fraction was confirmed by tandem mass spectrometry (MS/MS).
Take `Nc1ccc(S(=O)(=O)NCc2ccc(S(N)(=O)=O)cc2)cc1` [compound 23]: the Ki was greater than 50000 nM.

Staying with this test, now noted: read-out: KI^a (nM) / TvaCA1^c / β.
Turning to `Cc1ccc(-c2cc(C(F)(F)F)nn2-c2ccc(S(N)(=O)=O)cc2)cc1` [CLX], the Ki is greater than 50000 nM.

As for `NS(=O)(=O)c1cc2c(cc1Cl)NCNS2(=O)=O` [HCT], the Ki is greater than 50000 nM.

Take `NS(=O)(=O)c1ccc(S(=O)(=O)Nc2cccc3c(Cl)c[nH]c23)cc1` [IND]: the Ki was greater than 50000 nM.

As to `O=C1NS(=O)(=O)c2ccccc21` [SAC], the Ki was greater than 50000 nM.

With `NS(=O)(=O)c1ccc(N2CCCCS2(=O)=O)cc1` [SLT], the Ki is greater than 50000 nM.

Turning to `Cc1onc(-c2ccccc2)c1-c1ccc(S(N)(=O)=O)cc1` [VLX], the Ki was greater than 50000 nM.

Turning to `NCc1ccc(S(N)(=O)=O)cc1` [compound 5], the Ki was greater than 50000 nM.

`NCCc1ccc(S(N)(=O)=O)cc1` [compound 6]: the Ki was greater than 50000 nM.

As to `Nc1ccc(S(N)(=O)=O)cc1Cl` [compound 8], the Ki is greater than 50000 nM.

As to `Nc1ccc(S(N)(=O)=O)cc1Br` [compound 9], the Ki is greater than 50000 nM.

Take `Nc1cc(C(F)(F)F)c(S(N)(=O)=O)cc1S(N)(=O)=O` [compound 11]: the Ki is greater than 50000 nM.

In the case of `Nc1cc(Cl)c(S(N)(=O)=O)cc1S(N)(=O)=O` [compound 12], the Ki is greater than 50000 nM.

Take `NS(=O)(=O)c1ccc(CO)cc1` [compound 16]: the Ki is greater than 50000 nM.

Turning to `NS(=O)(=O)c1ccc(CCO)cc1` [compound 17], the Ki was greater than 50000 nM.

Regarding `NS(=O)(=O)c1ccc(C(=O)O)cc1` [compound 18], the Ki was greater than 50000 nM.

As to `Nc1ccc(S(=O)(=O)Nc2nnc(S(N)(=O)=O)s2)cc1` [compound 20], the Ki was greater than 50000 nM.

Take `Nc1ccc(S(=O)(=O)Nc2ccc(S(N)(=O)=O)cc2)cc1` [compound 22]: the Ki was greater than 50000 nM.
